Measured values taken from patent publication US5968795A, “Biaryl acetylenes as inhibitors of matrix metalloproteases” (Bayer Corporation, priority 1997, dated 1999).
Where two headings read alike, the source gives them in different places.

Tests used:
[1] = target: T1, Human Recombinant Gelatinase B (MMP-9) (Homo sapiens, UniProt P14780); test: P218 quenched fluorescence assay for MMP inhibition: MMP-9; assay type: biochemical; details: P218 substrate 6 μM, pH 6.5, 25 min at 37° C.; for IC50: read-out: MMP-9 Fluorogenic IC-50; for MMP-9 Fluorogenic, I (percent inhibition): inhibitor concentration not given
T1 construct: made in house; host or cells: baculovirus protein expression system
T1 sequence (P14780 107-707 limits assumed): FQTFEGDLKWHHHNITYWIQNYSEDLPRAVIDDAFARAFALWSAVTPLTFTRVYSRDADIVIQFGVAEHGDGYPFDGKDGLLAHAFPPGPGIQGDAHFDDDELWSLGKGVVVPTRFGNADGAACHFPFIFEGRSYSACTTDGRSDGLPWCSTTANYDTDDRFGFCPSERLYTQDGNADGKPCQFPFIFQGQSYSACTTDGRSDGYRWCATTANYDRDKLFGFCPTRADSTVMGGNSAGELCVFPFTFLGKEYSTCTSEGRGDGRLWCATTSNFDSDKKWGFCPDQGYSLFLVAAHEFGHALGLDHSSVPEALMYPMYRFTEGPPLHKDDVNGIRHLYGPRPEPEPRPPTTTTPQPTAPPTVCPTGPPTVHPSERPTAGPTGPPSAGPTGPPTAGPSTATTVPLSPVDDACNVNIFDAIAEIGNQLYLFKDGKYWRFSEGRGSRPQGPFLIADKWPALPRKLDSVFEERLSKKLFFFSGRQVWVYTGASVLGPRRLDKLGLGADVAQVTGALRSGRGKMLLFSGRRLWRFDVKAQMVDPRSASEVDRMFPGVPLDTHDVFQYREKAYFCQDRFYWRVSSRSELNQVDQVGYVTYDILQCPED
From the text: (§1) P218 Quenched Fluorescence Assay for MMP Inhibition:
(§2) The P218 quenched fluorescence assay (Microfluorometric Profiling Assay) is a modification of that originally described by Knight, et al., FEBS Lett. 296, 263, 1992 for a related substance and a variety of matrix metalloproteinases (MMPs) in cuvettes. The assay was run with each invention compound and the three MMPs, MMP-3, MMP-9 and MMP-2, analyzed in parallel, adapted as follows for a 96-well microtiter plate and a Hamilton AT® workstation.
(§3) P218 Fluorogenic Substrate:
(§4) P218 is a synthetic substrate containing a 4-acetyl-7-methoxycoumarin (MCA) group in the N-terminal position and a 3-[2,4-dinitrophenyl]-L-2,3-diaminopropionyl (DPA) group internally. This is a modification of a peptide reported by Knight (1992) that was used as a substrate for matrix metalloproteinases. Once the P218 peptide is cleaved (putative clip site at the Ala-Leu bond), the fluorescence of the MCA group can be detected on a fluorometer with excitation at 328 nm and emission at 393 nm. P218 is currently being produced BACHEM exclusively for Bayer. P218 has the structure:
(§5) H-MCA-Pro-Lys-Pro-Leu-Ala-Leu-DPA-Ala-Arg-NH2 (MW 1332.2)
Preparation of Human Recombinant Pro-Gelatinase B (MMP-9):
Recombinant Human Pro-MMP-9: Human pro-gelatinase B (pro-MMP-9) derived from U937 cDNA as described by Wilhelm, et al. J. Biol. Chem. 264, 17213, 1989 was expressed as the full-length form using a baculovirus protein expression system. The pro-enzyme was purified using methods previously described by Hibbs, et al. J. Biol. Chem. 260, 2493, 1984.
Activation of Pro-MMP-9: Pro-MMP-2 20 μg/ml in 50 mM Tris at pH 7.4, 10 mM CaCl2, 150 mM NaCl, and 0.005% Brij-35 (MMP-9 activation buffer) was activated by incubation with 0.5 mM p-aminophenylmercuric acetate (APMA) for 3.5 h at 37° C. The enzyme was dialyzed against the same buffer to revmove the APMA.
(§6) Hamiltion Microlab AT Plus: The MMP-Profiling Assay is performed robotically on a Hamilton MicroLab AT Plus®. The Hamilton is programmed to: (1) serially dilute up to 11 potential inhibitors automatically from a 2.5 mM stock in 100% DMSO; (2) distribute substrate followed by inhibitor into a 96 well Cytofluor plate; and (3) add a single enzyme to the plate with mixing to start the reaction. Subsequent plates for each additional enzyme are prepared automatically by beginning the program at the substrate addition point, remixing the diluted inhibitors and beginning the reaction by addition of enzyme. In this way, all MMP assays were done using the same inhibitor dilutions.
(§7) Millipore Cytofluor II. Following incubation, the plate was read on a Cytofluor II fluorometric plate reader with excitation at 340 nm and emission at 395 nm with the gain set at 80.
(§8) Microfluorometric Reaction Buffer (MRB): Dilution of test compounds, enzymes, and P218 substrate for the microfluorometric assay were made in microfluorometric reaction buffer consisting of 50 mM 2-(N-morpholino)ethanesulfonic acid (MES) at pH 6.5 with 10 mM CaCl2, 150 mM NaCl, 0.005% Brij-35 and 1% DMSO.
(§9) MMP Microfluorometric Profiling Assay. The assay is done with a final substrate concentration of 6 μM P218 and approximately 0.5 to 0.8 nM MMP with variable drug concentrations. The Hamilton is programmed to serially dilute up to 11 compounds from a 2.5 mM stock (100% DMSO) to 10x the final compounds concentrations in the assay. Initially, the instrument delivers various amounts of microfluoromentric reaction buffer (MRB) to a 96 tube rack of 1 ml Marsh dilution tubes. The instrument then picks up 20 μl of inhibitor (2.5 mM) from the sample rack and mixes it with a buffer in row A of the Marsh rack, resulting in a 50 μM drug concentration. The inhibitors are then serially diluted to 10, 5, 1, 0.2, 0.05 and 0.01 μM. […]

[2] = target: T2, Recombinant Human CHO Stromelysin (MMP-3) (Homo sapiens, UniProt P08254); test: P218 quenched fluorescence assay for MMP inhibition: MMP-3; assay type: biochemical; details: P218 substrate 6 μM, pH 6.5, 25 min at 37° C.; read-out: MMP-3 Fluorogenic IC-50
T2 construct: made in house; host or cells: CHO cells (as described by Housley et al., J. Biol. Chem. 268, 4481, 1993)
T2 sequence (P08254 100-477): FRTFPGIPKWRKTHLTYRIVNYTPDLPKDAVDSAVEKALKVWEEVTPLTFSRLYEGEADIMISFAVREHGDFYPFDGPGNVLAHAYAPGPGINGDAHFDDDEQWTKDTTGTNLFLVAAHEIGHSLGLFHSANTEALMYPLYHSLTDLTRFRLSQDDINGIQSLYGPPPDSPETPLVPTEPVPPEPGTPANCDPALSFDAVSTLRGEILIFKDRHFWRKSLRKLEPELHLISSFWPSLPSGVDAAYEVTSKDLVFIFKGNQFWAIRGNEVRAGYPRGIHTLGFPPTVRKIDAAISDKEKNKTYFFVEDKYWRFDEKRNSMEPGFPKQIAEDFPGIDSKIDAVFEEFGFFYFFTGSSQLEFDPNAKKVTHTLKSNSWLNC
From the text: as §1, §2, §3, §4, §5
Recombinant Human CHO Stromelysin (MMP-3)
Recombinant Human CHO Pro-MMP-3: Human CHO pro-stromelysin-257 (pro-MMP-3) was expressed and purified as described by Housley, et al., J. Biol. Chem. 268, 4481, 1993.
Activation of Pro-MMP-3: Pro-MMP-3 at 1.72 μM (100 μg/mL) in 5 mM Tris at pH 7.5, 5 mM CaCl2, 25 mM NaCl, and 0.005% Brij-35 MMP-3) activation buffer) was activated by incubation with TPCK (N-tosyl-(L)-phenylalanine chloromethyl ketone) trypsin (1:100 w/w to pro-MMP-3) at 25° C. for 30 min. The reaction was stopped by addition of soybean trypsin inhibitor (SBTI; 5:1 w/w to trypsin concentration). This activation protocol results in the formation of 45 kDa active MMP-3, which still contains the C-terminal portion of the enzyme.
as §6, §7, §8, §9

[3] = target: T3, Human Recombinant Gelatinase A (MMP-2) (Homo sapiens, UniProt P08253); test: P218 quenched fluorescence assay for MMP inhibition: MMP-2; assay type: biochemical
T3 sequence (P08253 110-660): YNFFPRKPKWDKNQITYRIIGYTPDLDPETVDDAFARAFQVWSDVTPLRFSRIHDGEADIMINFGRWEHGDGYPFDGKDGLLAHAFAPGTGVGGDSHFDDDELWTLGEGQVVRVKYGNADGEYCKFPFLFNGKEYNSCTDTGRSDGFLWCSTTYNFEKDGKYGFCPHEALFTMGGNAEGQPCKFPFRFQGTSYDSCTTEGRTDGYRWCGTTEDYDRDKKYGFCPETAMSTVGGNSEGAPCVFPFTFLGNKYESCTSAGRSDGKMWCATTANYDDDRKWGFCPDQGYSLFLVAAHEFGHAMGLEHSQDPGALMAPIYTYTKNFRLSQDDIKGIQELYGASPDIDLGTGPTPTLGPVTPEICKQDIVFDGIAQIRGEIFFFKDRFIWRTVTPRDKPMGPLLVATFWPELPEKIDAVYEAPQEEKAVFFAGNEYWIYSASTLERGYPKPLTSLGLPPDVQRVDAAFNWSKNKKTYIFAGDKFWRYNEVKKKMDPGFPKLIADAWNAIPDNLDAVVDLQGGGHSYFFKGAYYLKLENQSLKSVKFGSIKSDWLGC

[4] = Child, et al., J. Pharm. Sci. 66, 466, 1977; cited from earlier work
[5] = system: human ovarian carcinoma xenografts; details: given intraperitoneally; cited from earlier work
human colon tumor = details: given intraperitoneally; orthotopic model in nude mice; cited from earlier work
[6] = P218 substrate 6 μM, pH 6.5, 25 min at 37° C., read-out: MMP-2 Fluorogenic IC-50

SMILES | IC50 [1] [nM] | IC50 [2] [nM] | IC50 [3, 6] [nM] | also measured
O=C(CC(CCCc1ccccc1)C(=O)O)c1ccc(-c2ccc(C#CCO)cc2)cc1 (racemic) [Compound I] | 106 | 21 | 4 | 
CC(=O)OCC#Cc1ccc(-c2ccc(C(=O)CC(CCCc3ccccc3)C(=O)O)cc2)cc1 (stereo not drawn) [Compound VI, 4'-[3-(acetyloxy)-1-propynyl]-λ-oxo-α-(3-phenylpropyl)-[1,1'-biphenyl]-4-butanoic acid] | 834 | 36 | 14 | 
CCOC(=O)OCC#Cc1ccc(-c2ccc(C(=O)CC(CCCc3ccccc3)C(=O)O)cc2)cc1 (stereo not drawn) [Compound VII, 4'-[3-[(ethoxycarbonyl)oxy]-1-propynyl]-λ-oxo-α-(3-phenylpropyl)-[1,1'-biphenyl]-4-butanoic acid] | 2460 | 67 | 103 | 
CCCN(CC#Cc1ccc(-c2ccc(C(=O)CC(CCCc3ccccc3)C(=O)O)cc2)cc1)CCC (stereo not shown) [Compound V] | 2630 | 327 | 235 | 
O=C(O)CCC#Cc1ccc(-c2ccc(C(=O)CC(CCCc3ccccc3)C(=O)O)cc2)cc1 (stereo not drawn) [Compound X, 4'-(4-carboxy-1-butynyl)-λ-oxo-α-(3-phenylpropyl)-[1,1'-biphenyl]-4-butanoic acid] |  | 203 | 108 | MMP-9 Fluorogenic, I (percent inhibition) [1]: 27%
O=CCCCC#Cc1ccc(-c2ccc(C(=O)CC(CCCc3ccccc3)C(=O)O)cc2)cc1 (stereo not drawn) [Compound XI, λ-oxo-4'-(5-oxo-1-pentynyl)-α-(3-phenylpropyl)-[1,1'biphenyl]-4-butanoic acid] |  | 1730 | 596 | MMP-9 Fluorogenic, I (percent inhibition) [1]: 24%
O=C(CC(CCN1C(=O)c2ccccc2C1=O)C(=O)O)c1ccc(-c2ccc(C#CCOCc3ccccc3)cc2)cc1 (stereo not drawn) [Compound XV, 1,3-dihydro-1,3-dioxo-α-[2-oxo-2-[4'-[3(phenylmethoxy)-1-propynyl][1,1'-biphenyl]-4-yl]ethyl]-2H-isoindole-2-butanoic acid] | 40 | 11 | 5 | 
O=C(CC(CCN1C(=O)c2ccccc2C1=O)C(=O)O)c1ccc(-c2ccc(C#CCO)cc2)cc1 (stereo not shown) [Compound XVI] | 2 | 4 |  | IC50 [3]: 1 nM
O=C(C[C@H](CCCc1ccccc1)C(=O)O)c1ccc(-c2ccc(C#CCO)cc2)cc1 [II, S-4'-(3-hydroxy-1-propynyl)-λ-oxo-α-(3-phenylpropyl)-[1,1'-biphenyl]-4-butanoic acid] |  | 2180 | 252 | MMP-9 Fluorogenic, I (percent inhibition) [1]: 35%
O=C(C[C@@H](CCCc1ccccc1)C(=O)O)c1ccc(-c2ccc(C#CCO)cc2)cc1 [III] | 37 | 5 | 1 | 
COCC#Cc1ccc(-c2ccc(C(=O)CC(CCCc3ccccc3)C(=O)O)cc2)cc1 (stereo not drawn) [IV, 4'-(3-methoxy-1-propynyl)-λ-oxo-α-(3-phenylpropyl)-[1,1'-biphenyl]-4-butanoic acid] | 704 | 38 | 21 | 
CC(=O)OCCC#Cc1ccc(-c2ccc(C(=O)CC(CCCc3ccccc3)C(=O)O)cc2)cc1 (stereo not shown) [IX] | 542 | 57 | 37 | 
O=C(O)CC(C(=O)c1ccc(-c2ccccc2)cc1)c1ccccc1 (stereo not shown) [LXXVII] |  |  |  | anti-inflammatory activity (in words) [4]: inactive
O=C(CC(CCCc1ccccc1)C(=O)O)c1ccc(-c2ccc(C#CCCO)cc2)cc1 (stereo not drawn) [VIII, 4'-(4-hydroxy-1-butynyl)-λ-oxo-α-(3-phenylpropyl)-[1,1'-biphenyl]-4-butanoic acid] | 122 | 32 | 6 | 
O=C(CC(CCCc1ccccc1)C(=O)O)c1ccc(-c2ccc(C#Cc3ccccc3)cc2)cc1 (stereo not drawn) [XIII, λ-oxo-4'-(phenylethynyl)-α-(3-phenylpropyl)-[1,1'-biphenyl]-4-butanoic acid] |  | 405 | 245 | 
O=C(CC(CCCc1ccccc1)C(=O)O)c1ccc(-c2ccc(C#CCCCCO)cc2)cc1 (stereo not shown) [XII] | 614 | 56.6 | 36 | 
O=C(CC(CCCc1ccccc1)C(=O)O)c1ccc(-c2ccc(C#Cc3cccc(O)c3)cc2)cc1 (stereo not shown) [XIV] |  | 125 | 85 | MMP-9 Fluorogenic, I (percent inhibition) [1]: 46%
O=C(CC(C(=O)O)c1ccccc1)c1ccc(-c2ccccc2)cc1 (stereo not shown) [XLIX] |  |  |  | anti-inflammatory activity (in words) [4]: inactive
CNC(=O)[C@H](Cc1ccccc1)NC(=O)[C@H](CC(C)C)[C@H](CSc1cccs1)C(=O)NO [batimastat] |  |  |  | survival of mice bearing human ovarian carcinoma xenografts [5]: prolongs the survival of mice; human colon tumor growth and spread (human colon tumor): inhibits human colon tumor growth and spread
CC(CC(=O)c1ccc(-c2ccccc2)cc1)C(=O)O (stereo not shown) [compound XLVII] |  |  |  | anti-inflammatory activity (in words) [4]: inactive
